# Assays:
# Assay in all cases: NCI 60-cell line one-dose antiproliferative screen (SRB)
# Format in all cases: cell-based
# 786-0 = conditions: Homo sapiens, read-out: growth inhibition % (GI%)
# Outline: (§1)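 A 48 h, 10 µM exposure is scored by SRB protein dye. Percent growth accounts for starting cell density, allowing lethality as well as cytostasis to be detected.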
# A498 = conditions: Homo sapiens, read-out: growth inhibition % (GI%)
# Outline: as §1
# A549/ATCC = conditions: Homo sapiens, read-out: growth inhibition % (GI%)
# Outline: as §1
# BT-5 = conditions: Homo sapiens, read-out: growth inhibition % (GI%)
# Outline: as §1
# CAKI-1 = conditions: Homo sapiens, read-out: growth inhibition % (GI%)
# Outline: as §1
# EKVX = conditions: Homo sapiens, read-out: growth inhibition % (GI%)
# Outline: as §1
# HCT-116 = conditions: Homo sapiens, read-out: growth inhibition % (GI%)
# Outline: as §1
# HL-60 (TB) = conditions: Homo sapiens, read-out: growth inhibition % (GI%)
# Outline: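 Sulforhodamine B assay, 515 nm: percent growth relative to untreated control and time-zero cell number after a 48 h incubation with 10 µM compound at 37 °C, reported as GI%.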
# HOP-62 = conditions: Homo sapiens, read-out: growth inhibition % (GI%)
# Outline: as §1
# IGROV1 = conditions: Homo sapiens, IGROV-1, read-out: growth inhibition % (GI%)
# Outline: as §1
# LOX IMVI = conditions: Homo sapiens, read-out: growth inhibition % (GI%)
# Outline: as §1
# M14 = conditions: Homo sapiens, read-out: growth inhibition % (GI%)
# Outline: as §1
# MCF7 = conditions: Homo sapiens, read-out: growth inhibition % (GI%)
# Outline: as §1
# MDA-MB-435 = conditions: Homo sapiens, read-out: growth inhibition % (GI%)
# Outline: as §1
# MOLT-4 = conditions: Homo sapiens, read-out: growth inhibition % (GI%)
# Outline: as §1
# NCI-H226 = conditions: Homo sapiens, read-out: growth inhibition % (GI%)
# Outline: as §1
# NCI-H23 = conditions: Homo sapiens, read-out: growth inhibition % (GI%)
# Outline: as §1
# NCI-H322M = conditions: Homo sapiens, read-out: growth inhibition % (GI%)
# Outline: as §1
# NCI-H522 = conditions: Homo sapiens, read-out: growth inhibition % (GI%)
# Outline: as §1
# NCI/ADR-RES = conditions: Homo sapiens, read-out: growth inhibition % (GI%)
# Outline: as §1
# OVCAR-4 = conditions: Homo sapiens, read-out: growth inhibition % (GI%)
# Outline: as §1
# OVCAR-5 = conditions: Homo sapiens, read-out: growth inhibition % (GI%)
# Outline: as §1
# OVCAR-8 = conditions: Homo sapiens, read-out: growth inhibition % (GI%)
# Outline: as §1
# PC-3 = conditions: Homo sapiens, read-out: growth inhibition % (GI%)
# Outline: as §1
# RXF 393 = conditions: Homo sapiens, read-out: growth inhibition % (GI%)
# Outline: as §1
# SF-268 = conditions: Homo sapiens, read-out: growth inhibition % (GI%)
# Outline: as §1
# SF-295 = conditions: Homo sapiens, read-out: growth inhibition % (GI%)
# Outline: as §1
# SF-539 = conditions: Homo sapiens, read-out: growth inhibition % (GI%)
# Outline: as §1
# SK-MEL-5 = conditions: Homo sapiens, read-out: growth inhibition % (GI%)
# Outline: as §1
# SNB-19 = conditions: Homo sapiens, read-out: growth inhibition % (GI%)
# Outline: as §1
# SNB-75 = conditions: Homo sapiens, read-out: growth inhibition % (GI%)
# Outline: as §1
# SW-620 = conditions: Homo sapiens, read-out: growth inhibition % (GI%)
# Outline: as §1
# T-47D = conditions: Homo sapiens, T47D, read-out: growth inhibition % (GI%)
# Outline: as §1
# HOP-92 = conditions: Homo sapiens, read-out: growth inhibition % (GI%)
# Outline: as §1
Compound,inhibition at 10 µM (A498) [%],inhibition at 10 µM (A549/ATCC) [%],inhibition at 10 µM (BT-5) [%],inhibition at 10 µM (CAKI-1) [%],inhibition at 10 µM (EKVX) [%],inhibition at 10 µM (HCT-116) [%],inhibition at 10 µM (HOP-62) [%],inhibition at 10 µM (IGROV1) [%],inhibition at 10 µM (LOX IMVI) [%],inhibition at 10 µM (M14) [%],inhibition at 10 µM (MCF7) [%],inhibition at 10 µM (MDA-MB-435) [%],inhibition at 10 µM (MOLT-4) [%],inhibition at 10 µM (NCI-H226) [%],inhibition at 10 µM (NCI-H23) [%],inhibition at 10 µM (NCI-H322M) [%],inhibition at 10 µM (NCI-H522) [%],inhibition at 10 µM (NCI/ADR-RES) [%],inhibition at 10 µM (OVCAR-5) [%],inhibition at 10 µM (OVCAR-8) [%],other results
"Cc1ccc(C(=O)c2ccc(CC(=O)NN3C(=O)C=CC3=O)n2C)cc1 [Compound 7b, N-(2,5-Dioxo-2,5-dihydro-1H-pyrrol-1-yl)-2–(1-methyl-5–(4-methylbenzoyl)-1H-pyrrol-2-yl)acetamide]",10.7,12.8,< 10,20.3,25.7,14,10.4,22.2,11.1,< 10,13.2,< 10,14,22.1,23.9,< 10,15.9,12.3,< 10,< 10,inhibition at 10 µM (786-0): < 10%; inhibition at 10 µM (HL-60 (TB)): 10.6%; inhibition at 10 µM (OVCAR-4): < 10%; inhibition at 10 µM (PC-3): 10.7%; inhibition at 10 µM (RXF 393): 13%; inhibition at 10 µM (SF-268): 12.3%; inhibition at 10 µM (SF-295): < 10%; inhibition at 10 µM (SF-539): < 10%; inhibition at 10 µM (SK-MEL-5): < 10%; inhibition at 10 µM (SNB-19): 11%; inhibition at 10 µM (SNB-75): 16%; inhibition at 10 µM (SW-620): < 10%; inhibition at 10 µM (T-47D): 25.5%
"Cc1ccc(C(=O)c2ccc(CC(=O)NN=Cc3ccc(O)cc3O)n2C)cc1 [Compound 5c, N′-(2,4-Dihydroxybenzylidene)-2–(1-methyl-5–(4-methylbenzoyl)-1H-pyrrol-2-yl) acetohydrazide]",12.6,53.4,49.2,53.4,65.8,65.1,59.4,58.3,81.2,71.2,60.8,36.9,87,34.3,57.6,62,44.5,65.4,36.6,51.6,inhibition at 10 µM (786-0): 56.6%; inhibition at 10 µM (HL-60 (TB)): 95.5%; inhibition at 10 µM (HOP-92): 16.9%; inhibition at 10 µM (OVCAR-4): 79.3%; inhibition at 10 µM (PC-3): 38.9%; inhibition at 10 µM (RXF 393): 50.3%; inhibition at 10 µM (SF-268): 62.7%; inhibition at 10 µM (SF-295): 52.8%; inhibition at 10 µM (SF-539): 55.6%; inhibition at 10 µM (SK-MEL-5): 60.7%; inhibition at 10 µM (SNB-19): 50.6%; inhibition at 10 µM (SNB-75): 68.9%; inhibition at 10 µM (SW-620): 57.8%; inhibition at 10 µM (T-47D): 49.8%
"Cc1ccc(C(=O)c2ccc(CC(=O)NN=Cc3cccc(O)c3O)n2C)cc1 [Compound 5b, N′-(2,3-Dihydroxybenzylidene)-2–(1-methyl-5–(4-methylbenzoyl)-1H-pyrrol-2-yl) acetohydrazide]",< 10,41.3,54.3,62.7,41.2,69.2,50.1,48.8,82.7,71.5,84,38.9,88.8,31,54.6,45.6,51.2,80.9,27.4,61.4,inhibition at 10 µM (786-0): 23.6%; inhibition at 10 µM (HL-60 (TB)): 95.9%; inhibition at 10 µM (HOP-92): 43.8%; inhibition at 10 µM (OVCAR-4): 70.9%; inhibition at 10 µM (PC-3): 40.8%; inhibition at 10 µM (RXF 393): 70.3%; inhibition at 10 µM (SF-268): 62.8%; inhibition at 10 µM (SF-295): 16.5%; inhibition at 10 µM (SF-539): 66.2%; inhibition at 10 µM (SK-MEL-5): 65.4%; inhibition at 10 µM (SNB-19): 54%; inhibition at 10 µM (SNB-75): 74.6%; inhibition at 10 µM (SW-620): 65.8%; inhibition at 10 µM (T-47D): 74.1%
"Cc1ccc(C(=O)c2ccc(CC(=O)NN=Cc3ccccc3O)n2C)cc1 [Compound 5a, N′-(2-Hydroxybenzylidene)-2–(1-methyl-5–(4-methylbenzoyl)-1H-pyrrol-2-yl)aceto hydrazide]",18,13.9,14.9,35.5,17.3,< 10,24,19.1,42,17.1,18.5,16.8,26,< 10,17.1,21.1,24.9,30.6,< 10,21,inhibition at 10 µM (786-0): < 10%; inhibition at 10 µM (HL-60 (TB)): 13%; inhibition at 10 µM (HOP-92): < 10%; inhibition at 10 µM (OVCAR-4): 39.8%; inhibition at 10 µM (PC-3): 13.2%; inhibition at 10 µM (RXF 393): 10.4%; inhibition at 10 µM (SF-268): 29.1%; inhibition at 10 µM (SF-295): < 10%; inhibition at 10 µM (SF-539): 10.9%; inhibition at 10 µM (SK-MEL-5): 12.6%; inhibition at 10 µM (SNB-19): 20.7%; inhibition at 10 µM (SNB-75): 40.4%; inhibition at 10 µM (SW-620): 10.4%; inhibition at 10 µM (T-47D): 24.4%
"Cc1ccc(C(=O)c2ccc(CC(=O)NN=Cc3c[nH]c4ccccc34)n2C)cc1 [Compound 5f, N′-((1H-Indol-3-yl)methylene)-2–(1-methyl-5–(4-methylbenzoyl)-1H-pyrrol-2-yl) acetohydrazide]",15.6,15.4,< 10,17,17.7,< 10,< 10,15.2,16.5,< 10,27,< 10,16.5,< 10,< 10,< 10,18.7,< 10,< 10,< 10,inhibition at 10 µM (786-0): < 10%; inhibition at 10 µM (HL-60 (TB)): 27%; inhibition at 10 µM (HOP-92): < 10%; inhibition at 10 µM (OVCAR-4): 11.1%; inhibition at 10 µM (PC-3): < 10%; inhibition at 10 µM (RXF 393): < 10%; inhibition at 10 µM (SF-268): 10.5%; inhibition at 10 µM (SF-295): < 10%; inhibition at 10 µM (SF-539): < 10%; inhibition at 10 µM (SK-MEL-5): < 10%; inhibition at 10 µM (SNB-19): 12.5%; inhibition at 10 µM (SNB-75): 25.5%; inhibition at 10 µM (SW-620): < 10%; inhibition at 10 µM (T-47D): 22.1%
"Cc1ccc(C(=O)c2ccc(CC(=O)NNC(=O)Nc3ccc(Cl)c(C(F)(F)F)c3)n2C)cc1 [Compound 8c, N-(4-Chloro-3-(trifluoromethyl)phenyl)-2–(2-(1-methyl-5–(4-methylbenzoyl)-1H-pyrrol-2-yl)acetyl)hydrazinecarboxamide]",18.3,21.7,11.4,35.2,< 10,< 10,20,36.1,10.5,11.7,21.7,20.7,19.2,< 10,< 10,14.4,21.1,< 10,10.9,10.9,inhibition at 10 µM (HOP-92): 13.5%; inhibition at 10 µM (PC-3): 22.4%; inhibition at 10 µM (RXF 393): < 10%; inhibition at 10 µM (SF-268): 26.3%; inhibition at 10 µM (SF-295): < 10%; inhibition at 10 µM (SF-539): < 10%; inhibition at 10 µM (SK-MEL-5): 22.3%; inhibition at 10 µM (SNB-19): 25.8%; inhibition at 10 µM (SNB-75): 35.7%; inhibition at 10 µM (SW-620): 10.6%; inhibition at 10 µM (T-47D): 13.8%

# — publication PMC8079033, “Design, synthesis, anticancer evaluation, and molecular modelling studies of novel tolmetin derivatives as potential VEGFR-2 inhibitors and apoptosis inducers” (Journal of Enzyme Inhibition and Medicinal Chemistry, 2021)
